Results taken from JP2005255641A, “ベンゾフラン誘導体” (Kyowa Hakko Kogyo Co Ltd, priority 2004, dated 2005).

Molecular target: T1, recombinant human PDE-IV (HSPDE4A) [組み換えヒトPDE−IV (HSPDE4A)] (Homo sapiens, UniProt P27815)
T1 construct: made in house; host or cells: Sf9 insect cells
Experiment: Recombinant human PDE-IV enzyme inhibition test
Assay type: biochemical
Details: read-out: enzyme inhibitory activity; for inhibition: drug concentration 1 μmol/L, [3H]cAMP 1 μmol/L, 30 °C, 10-30 min, DMSO 1.7%

T1 sequence (P27815 whole entry): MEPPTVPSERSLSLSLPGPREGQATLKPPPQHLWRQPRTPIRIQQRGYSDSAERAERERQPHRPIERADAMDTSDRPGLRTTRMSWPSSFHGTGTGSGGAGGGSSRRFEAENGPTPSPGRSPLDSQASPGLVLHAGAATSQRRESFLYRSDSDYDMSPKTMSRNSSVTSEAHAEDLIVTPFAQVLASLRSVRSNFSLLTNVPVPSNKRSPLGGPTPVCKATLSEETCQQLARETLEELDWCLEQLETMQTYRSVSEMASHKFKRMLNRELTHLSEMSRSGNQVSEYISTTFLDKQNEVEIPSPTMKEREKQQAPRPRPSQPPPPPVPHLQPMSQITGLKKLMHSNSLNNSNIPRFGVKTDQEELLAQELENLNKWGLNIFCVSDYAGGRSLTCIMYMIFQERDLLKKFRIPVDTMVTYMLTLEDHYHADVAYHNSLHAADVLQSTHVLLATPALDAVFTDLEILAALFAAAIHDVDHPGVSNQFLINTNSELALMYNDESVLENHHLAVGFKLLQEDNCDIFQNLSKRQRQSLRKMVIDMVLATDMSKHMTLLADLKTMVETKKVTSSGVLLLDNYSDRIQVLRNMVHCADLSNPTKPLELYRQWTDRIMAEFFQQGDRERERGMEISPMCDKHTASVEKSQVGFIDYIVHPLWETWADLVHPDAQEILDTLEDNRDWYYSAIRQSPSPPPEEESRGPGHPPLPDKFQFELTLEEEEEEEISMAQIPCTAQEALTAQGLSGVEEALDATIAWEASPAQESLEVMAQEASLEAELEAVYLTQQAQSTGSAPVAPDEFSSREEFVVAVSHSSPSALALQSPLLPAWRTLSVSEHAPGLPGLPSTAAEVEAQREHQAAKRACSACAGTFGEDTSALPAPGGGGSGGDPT

SMILES	inhibition	inhibition at 1 µM
CCc1ccc([C@]2(C#N)CC[C@@H](C(=O)O)CC2)c2oc(C(=O)c3ccccc3)cc12 [化合物127, シス−4−(2−ベンゾイル−4−エチルベンゾフラン−7−イル)−4−シアノシクロヘキサンカルボン酸]	≥ 50%	–
COc1ccc(C2(C#N)CCN(CC(=O)O)CC2)c2cc(C(C)(C)C)oc12 [化合物78, 2−(4−(2−tert−ブチル−7−メトキシベンゾフラン−4−イル)−4−シアノピペリジン−1−イル)酢酸 塩酸塩]	–	≥ 50%
N#CC1(c2ccc(OC(F)F)c3oc(C4CC4)cc23)CCN(CC(=O)O)CC1 [化合物89, 2−(4−シアノ−4−(2−シクロプロピル−7−ジフルオロメトキシベンゾフラン−4−イル)ピペリジン−1−イル)酢酸 塩酸塩]	–	≥ 50%
COc1ccc([C@]2(C#N)CC[C@@H](C(=O)O)CC2)c2cc(C(=O)c3ccccc3)oc12 [化合物111, シス−4−(2−ベンゾイル−7−メトキシベンゾフラン−4−イル)−4−シアノシクロヘキサンカルボン酸]	≥ 50%	–
C=Cc1ccc([C@]2(C#N)CC[C@@H](C(=O)O)CC2)c2oc(C(=O)c3ccccc3)cc12 [化合物126, シス−4−(2−ベンゾイル−4−ビニルベンゾフラン−7−イル)−4−シアノシクロヘキサンカルボン酸]	≥ 50%	–
COc1ccc(C2(C#N)CCN(CC(=O)O)CC2)c2cc(C3CC3C)oc12 (centres unmarked) [化合物84, 2−(4−シアノ−4−(7−メトキシ−2−(2−メチルシクロプロピル)ベンゾフラン−4−イル)ピペリジン−1−イル)酢酸 塩酸塩]	–	≥ 50%
COc1ccc(C2(C#N)CCN(CC(=O)O)CC2)c2cc(C3(C)CC3)oc12 [化合物87, 2−(4−シアノ−4−(7−メトキシ−2−(1−メチルシクロプロピル)ベンゾフラン−4−イル)ピペリジン−1−イル)酢酸 塩酸塩]	–	≥ 50%
CCc1cc2c(o1)c(OC)ccc2[C@]1(C#N)CC[C@@H](C(=O)O)CC1 [化合物101, シス−4−シアノ−4−(2−エチル−7−メトキシベンゾフラン−4−イル)シクロヘキサンカルボン酸]	≥ 50%	–
COc1ccc([C@]2(C#N)CC[C@@H](C(=O)O)CC2)c2cc(C(=O)c3ccncc3)oc12 [化合物112, シス−4−シアノ−4−(2−イソニコチノイル−7−メトキシベンゾフラン−4−イル)シクロヘキサンカルボン酸]	≥ 50%	–
COc1ccc(C2(C#N)CCN(CC(=O)O)CC2)c2cc(CC(C)(C)C)oc12 [化合物80, 2−(4−(7−メトキシ−2−ネオペンチルベンゾフラン−4−イル)−4−シアノピペリジン−1−イル)酢酸 塩酸塩]	–	≥ 50%
COC(=O)c1cc2c(C3(C#N)CCN(CC(=O)O)CC3)ccc(OC)c2o1 [化合物93, 2−(4−シアノ−4−(7−メトキシ−2−メトキシカルボニルベンゾフラン−4−イル)ピペリジン−1−イル)酢酸]	≥ 50%	–
COc1ccc([C@]2(C#N)CC[C@@H](C(=O)O)CC2)c2cc(C(=O)N3CCC(N4CCCC4)CC3)oc12 [化合物116, シス−4−シアノ−4−(7−メトキシ−2−(4−(ピロリジン−1−イル)ピペリジノカルボニル)ベンゾフラン−4−イル)シクロヘキサンカルボン酸 塩酸塩]	≥ 50%	–
C=Cc1ccc([C@]2(C#N)CC[C@@H](C(=O)O)CC2)c2cc(C(=O)c3ccccc3)oc12 [化合物122, シス−4−(2−ベンゾイル−7−ビニルベンゾフラン−4−イル)−4−シアノシクロヘキサンカルボン酸, 0.4H2O]	≥ 50%	–
COc1ccc([C@]2(C#N)CC[C@@H](C(=O)O)CC2)c2cc(C3(C)CC3)oc12 [化合物103, シス−4−シアノ−4−(7−メトキシ−2−(1−メチルシクロプロピル)ベンゾフラン−4−イル)シクロヘキサンカルボン酸]	≥ 50%	–
COc1ccc(C2(C#N)CCN(CC(=O)O)CC2)c2cc(C(=O)C(C)C)oc12 [化合物91, 2−(4−シアノ−4−(2−イソブチリル−7−メトキシベンゾフラン−4−イル)ピペリジン−1−イル)酢酸]	≥ 50%	–
COc1ccc(C2(C#N)CCN(CC(=O)O)CC2)c2cc(C#N)oc12 [化合物99, 2−(4−シアノ−4−(2−シアノ−7−メトキシベンゾフラン−4−イル)ピペリジン−1−イル)酢酸]	≥ 50%	–
COc1ccc([C@]2(C#N)CC[C@@H](C(=O)O)CC2)c2cc(C3(C(F)(F)F)CC3)oc12 [化合物104, シス−4−シアノ−4−(7−メトキシ−2−(1−トリフルオロメチルシクロプロピル)ベンゾフラン−4−イル)シクロヘキサンカルボン酸]	≥ 50%	–
COc1ccc([C@]2(C#N)CC[C@@H](C(=O)O)CC2)c2oc(C(=O)c3ccccc3)cc12 [化合物124, シス−4−(2−ベンゾイル−4−メトキシベンゾフラン−7−イル)−4−シアノシクロヘキサンカルボン酸]	≥ 50%	–
COc1ccc(C2(C#N)CCN(CC(=O)O)CC2)c2cc(C(C)C)oc12 [化合物77, 2−(4−シアノ−4−(2−イソプロピル−7−メトキシベンゾフラン−4−イル)ピペリジン−1−イル)酢酸 塩酸塩]	–	≥ 50%

SMILES	inhibition	inhibition at 1 µM
COc1ccc(C2(C#N)CCN(CC(=O)O)CC2)c2cc(C(C)=O)oc12 [化合物90, 2−(4−(2−アセチル−7−メトキシベンゾフラン−4−イル)−4−シアノピペリジン−1−イル)酢酸]	≥ 50%	–
COc1ccc(C2(C#N)CCN(CC(=O)O)CC2)c2cc(C3(c4ccccc4)CC3)oc12 [化合物88, 2−(4−シアノ−4−(7−メトキシ−2−(1−フェニルシクロプロピル)ベンゾフラン−4−イル)ピペリジン−1−イル)酢酸 塩酸塩]	–	≥ 50%
COc1ccc(C2(C#N)CCN(CC(=O)O)CC2)c2cc(C3CCC3)oc12 [化合物82, 2−(4−シアノ−4−(2−シクロブチル−7−メトキシベンゾフラン−4−イル)ピペリジン−1−イル)酢酸 塩酸塩]	–	≥ 50%
CCc1cc2c(C3(C#N)CCN(CC(=O)O)CC3)ccc(OC)c2o1 [化合物76, 2−(4−シアノ−4−(2−エチル−7−メトキシベンゾフラン−4−イル)ピペリジン−1−イル)酢酸, 0.3H2O]	≥ 50%	–
COc1ccc(C2(C#N)CCN(CC(=O)O)CC2)c2cc(C(=O)c3ccccc3)oc12 [化合物92, 2−(4−(2−ベンゾイル−7−メトキシベンゾフラン−4−イル)−4−シアノピペリジン−1−イル)酢酸]	≥ 50%	–
COc1ccc([C@]2(C#N)CC[C@@H](C(=O)O)CC2)c2cc(C(=O)c3cc[n+]([O-])cc3)oc12 [化合物113, シス−4−シアノ−4−(2−(イソニコチノイル−1−オキシド)−7−メトキシベンゾフラン−4−イル)シクロヘキサンカルボン酸, 0.2H2O]	≥ 50%	–
CCc1ccc([C@]2(C#N)CC[C@@H](C(=O)O)CC2)c2cc(C(=O)c3ccccc3)oc12 [化合物123, シス−4−(2−ベンゾイル−7−エチルベンゾフラン−4−イル)−4−シアノシクロヘキサンカルボン酸]	≥ 50%	–
COc1ccc(C2(C#N)CCN(CC(=O)O)CC2)c2cc(Cc3ccccc3)oc12 [化合物81, 2−(4−(2−ベンジル−7−メトキシベンゾフラン−4−イル)−4−シアノピペリジン−1−イル)酢酸 塩酸塩]	–	≥ 50%
COc1ccc([C@]2(C#N)CC[C@@H](C(=O)O)CC2)c2cc(C(=O)N3CCN(CCO)CC3)oc12 [化合物115, シス−4−シアノ−4−(2−(4−(2−ヒドロキシエチル)ピペラジン−1−イルカルボニル)−7−メトキシベンゾフラン−4−イル)シクロヘキサンカルボン酸 塩酸塩]	≥ 50%	–
COc1ccc([C@]2(C#N)CC[C@@H](C(=O)O)CC2)c2cc(C(C)(C)O)oc12 [化合物110, シス−4−シアノ−4−(2−(1−ヒドロキシ−1−メチルエチル)−7−メトキシベンゾフラン−4−イル)シクロヘキサンカルボン酸]	≥ 50%	–
COc1ccc([C@]2(C#N)CC[C@@H](C(=O)O)CC2)c2cc(C#N)oc12 [化合物121, シス−4−シアノ−4−(2−シアノ−7−メトキシベンゾフラン−4−イル)シクロヘキサンカルボン酸]	≥ 50%	–
CC1(c2cc3c(o2)c(OC(F)F)ccc3[C@]2(C#N)CC[C@@H](C(=O)O)CC2)CC1 [化合物107, シス−4−シアノ−4−(7−ジフルオロメトキシ−2−(1−メチルシクロプロピル)ベンゾフラン−4−イル)シクロヘキサンカルボン酸]	≥ 50%	–
COc1ccc(C2(C#N)CCN(CC(=O)O)CC2)c2c3c(oc12)CCCC3 [化合物100, 2−(4−シアノ−4−(6−メトキシ−1,2,3,4−テトラヒドロジベンゾフラン−9−イル)ピペリジン−1−イル)酢酸 塩酸塩]	–	≥ 50%
COc1ccc([C@]2(C#N)CC[C@@H](C(=O)O)CC2)c2cc(C(=O)N3CCN(C)CC3)oc12 [化合物114, シス−4−シアノ−4−(7−メトキシ−2−(4−メチルピペラジン−1−イルカルボニル)ベンゾフラン−4−イル)シクロヘキサンカルボン酸 塩酸塩]	≥ 50%	–
COc1ccc(C2(C#N)CCN(CC(=O)O)CC2)c2cc(C3CC3)oc12 [化合物83, 2−(4−シアノ−4−(2−シクロプロピル−7−メトキシベンゾフラン−4−イル)ピペリジン−1−イル)酢酸 塩酸塩]	–	≥ 50%
COc1ccc(C2(C#N)CCN(CC(=O)O)CC2)c2cc(CC(C)C)oc12 [化合物79, 2−(4−シアノ−4−(2−イソブチル−7−メトキシベンゾフラン−4−イル)ピペリジン−1−イル)酢酸 塩酸塩]	–	≥ 50%
COc1ccc([C@]2(C#N)CC[C@@H](C(=O)O)CC2)c2cc(C(C)=O)oc12 [化合物109, シス−4−(2−アセチル−7−メトキシベンゾフラン−4−イル)−4−シアノシクロヘキサンカルボン酸]	≥ 50%	–
COc1ccc([C@]2(C#N)CC[C@@H](C(=O)O)CC2)c2cc(C(C)O)oc12 (some centres unmarked) [化合物108, シス−4−シアノ−4−(2−(1−ヒドロキシエチル)−7−メトキシベンゾフラン−4−イル)シクロヘキサンカルボン酸]	≥ 50%	–
N#C[C@]1(c2ccc(OC(F)F)c3oc(C4CC4)cc32)CC[C@H](C(=O)O)CC1 [化合物106, シス−4−シアノ−4−(2−シクロプロピル−7−ジフルオロメトキシベンゾフラン−4−イル)シクロヘキサンカルボン酸, 0.2H2O]	≥ 50%	–
